The values that follow are results of earlier work, collected in US12070440B2, “Topical formulations of nitroglycerin” (PERMEATUS, INC., priority 2022, dated 2024).

Read-outs that look alike come from different tables or passages of the source.

As to `O=[N+]([O-])OCC(CO[N+](=O)[O-])O[N+](=O)[O-]` [nitroglycerin, 1,2,3-trinitroxypropane], the “decomposition by denitration to 1,2-GDN” value is recorded as “faster” (acidic environment (0.1N HCl)); “slow” (pH 7.4); “rapid” (pH values of 11 and above).
